Reference: patent US20080227809A1, “Arylalkylamine Vanadium (V) Salts for the Treatment and/or Prevention of Diabetes Mellitus” (GENMEDICA THERAPEUTICS SL, priority 2004, published 2008)

How the values were obtained:
isolated rat adipocytes = assay: glucose transport (2-deoxyglucose uptake) in isolated rat adipocytes; type: cell-based; conditions: for stimulatory effect on glucose transport in the presence of semicarbazide: 1 mM semicarbazide (SSAO inhibitor); for stimulation of glucose transport at low concentration compared with A and B vanadium salts: 10 μM; for stimulation of glucose transport at low concentration compared with A and B vanadium salts / maximal stimulatory effect on glucose transport, compounds compared: vanadium salts; for maximal stimulatory effect on glucose transport, compounds compared: FIG. 6B
Protocol: In order to determine whether salts formed by vanadate and benzylamine could produce an insulin mimetic effect, the effect of increasing concentrations of hexaquis(benzylammonium) decavanadate on glucose transport activity in isolated rat adipocytes was tested. Hexaquis(benzylammonium) decavanadate induced the stimulation of glucose transport which was perceptible from concentrations of 0.5 μM, with a maximal effect observed 2.5 μM and the semimaximal effect above 1 μM. […] The maximum effect provoked by incubation with hexaquis(benzylammonium) decavanadate was greater than that produced by the presence of benzylamine and vanadate in combination (FIG. 1). […] In similar assays, the activity of hexaquis(benzylammonium) decavanadate, pentaquis(benzylammonium) decavanadate and tetraquis(benzylammonium) decavanadate on glucose transport activity in isolated rat adipocytes were analyzed.
To determine the possible insulin mimetic effect of certain vanadium arylalkylamines, the capacity of these compounds to enhance glucose transport in isolated rat adipocytes was tested. Adipose cells from Wistar rats were incubated for 45 minutes in basal conditions (Basal) or in the presence of 100 nM insulin (Ins), and different concentrations of. hexaquis(benzylammonium) decavanadate (B6V10) in the absence or in the presence of 1 mM semicarbazide (SCZ). Subsequently, 2-DG transport was measured over a 5 min. interval.
The effects of the three tested compounds (B6V10, B5V10 and B4V10) were compared. Adipose cells from Wistar rats were incubated for 45 minutes in basal conditions (Basal) or in the presence of 100 nM insulin (Ins), and different concentrations of. decavanadate (V10), hexaquis(benzylammonium) decavanadate (B6V10), pentaquis(benzylammonium) decavanadate (B5V10) or tetraquis(benzylammonium) decavanadate (B4V10) in the absence or in the presence of 1 mM semicarbazide (SCZ). 2-DG transport was measured over 5 min. intervals. […] The stimulation of all three compounds on glucose transport was blocked in the presence of semicarbazide.
In additional experiments, compounds shown in FIG. 6A (named 2-(4-fluoro-phenyl)-ethylamine (compound A), 3-phenyl-propylamine (compound B), 4-fluoro-benzylamine (compound C) and 4-phenyl-butylamine (compound D)) were assessed using the experimental methods set forth above for the capacity to stimulate 2-DG uptake in isolated rat adipocytes. Adipose cells from Wistar rats were incubated for 45 minutes in basal conditions (Basal) or in the presence of 100 nM insulin (Ins), and different concentrations of vanadium salts of 2-(4-fluoro-phenyl)-ethylamine (compound A), 3-phenyl-propylamine (compound B), 4-fluoro-benzylamine (compound C) and 4-phenyl-butylamine (compound D). 2-DG transport was measured over 5 min.
(§1) The effects of incubation with semicarbazide or phosphatidylinositol 3-kinase inhibitors were also investigated. Adipose cells were incubated with B6V10 (25 μM, 45 min) in the absence or presence of wortmannin (2 μM, 45 min), LY294002 (10 μM, 45 min) or semicarbazide (1 mM, 45 min) and thereafter 2-deoxyglucose uptake was determined during 5 min. Activation of protein kinase B phosphorylation induced by B6V10 was blocked by semicarbazide and it was not observed by decavanadate. In addition, phosphatidylinositol 3-kinase inhibitors wortmannin and LY294002 blocked B6V10-induced glucose transport (FIG. 7E).

protein kinase B = protein kinase B phosphorylation in isolated rat adipocytes; type: cell-based; conditions: 25 μM
Protocol: Isolated fat cells were disrupted for total membrane preparation by hypo-osmotic lysis in a 20 mM HES buffer and an antiprotease and antiphosphatase cocktail as reported by Abella et al. (2003, Diabetes 52: 1004-1013). Protein concentrations were determined by the Bradford method (Bradford, 1976, Anal. Biochem. 72: 248-254) with gamma-globulin as protein concentration standard. Immunoprecipitation and immunoblot assays were performed as previously described by Abella et al. (2004, Id.) with the use of a monoclonal antiphosphotyrosine antibody for the immunoprecipitation and an anti-insulin receptor antibody for immunobloting, respectively. SDS-polyacrylamide gel electrophoresis was performed on membrane proteins following conventional procedures. Proteins were transferred to Immobilon and immunoblotting was performed as reported by Castello et al. (1994, J. Biol. Chem. 269: 5905-5912).
The mechanism of action of B6V10 was investigated in isolated rat adipocytes. Adipose cells from Wistar rats were incubated for different times in the presence of 25 μM hexaquis(benzylammonium) decavanadate (B6V10). Cells were also incubated in the presence of insulin (100 nM, 45 min), decavanadate (25 μM, 45 min) or semicarbazide (1 mM, 45 min). Subsequently, 2-deoxyglucose uptake (results shown in FIG. 7A), tyrosine phosphorylation of insulin receptor (FIG. 7B), phospho-Thr^308-protein kinase B (FIG. 7C) and phospho-Ser^473-protein kinase B (FIG. 7D) was measured. […] The phosphorylation of protein kinase B induced by B6V10 was parallel to activation of glucose transport (FIGS. 7C and 7D).
as §1

[1] = system: streptozotocin-induced diabetic rats with undetectable circulating insulin; conditions: 2.5 μmol/kg subcutaneous by osmotic minipumps, streptozotocin 100 mg/kg
Protocol: Male Wistar rats weighting 180-220 g were purchased from Harlan (Interfauna Ibèrica S.A., Spain). Diabetes was induced by a single intraperitoneal injection of a freshly prepared solution of streptozotocin (in some studies the dose was 45 mg/kg body weight and in some others 100 mg/kg body weight dissolved in 50 mM citrate buffer, pH 4.5). Only diabetic animals with glycemia above 300 mg/dl were used. The animals were housed in animal quarters at 22° C. with a 12 h light/12 h dark cycle and were fed ad libitum. All procedures used were approved by the animal ethical committee of the University of Barcelona, Spain.
Osmotic minipumps delivering B6V10 (2.5 μmol/kg body wt/day) or decavanadate (2.5 μmol/kg body wt/day) were implanted subcutaneously in diabetic rats anaesthetised by ketamine hydrochloride (95 mg/kg) and xylasine (10 mg/kg). […] Glycemia was measured on arterio-venous blood collected from the tail vessels at 09:00 am for two weeks, before the administration of vanadate. Insulin concentrations were determined before and after treatment. In another set of experiments, B6V10 was orally administered at a single dose of 5 μmol/kg/day during the first week and 10 μmol/kg/day during 2 additional weeks by gastric gavage. A control group received the corresponding decavanadate salt in the absence of benzylamine. At the end of the treatment, animals were sacrificed and the liver, fat pad, heart and lung were kept at −80° C. and the plasma at −20° C. until their use for in vitro analysis.
In glucose tolerance tests and in chronic treatments, circulating glucose concentrations were determined by a rapid glucose analyser (Accutrend® Sensor Comfort, Roche, Basel. Switzerland). Plasma insulin (IRI) concentration was determined by ELISA method using a kit obtained from Crystal Chem. Inc. (Downers Grove, Ill.).
To this end, rats were made diabetic by the injection of a large dose of streptozotocin (100 mg/kg) that eliminates β-pancreatic insulin content.

[2] = system: streptozotocin-induced diabetic rats; assay: chronic oral treatment, glycemia of streptozotocin (45 mg/kg) diabetic rats; type: in vivo, rat; conditions: for effect on glycemia: daily oral administration, 17 days
Protocol: The effect of the oral administration of hexaquis(benzylammonium) decavanadate on glycemia from diabetic rats was also studied. Diabetes was induced in rats by intravenous administration of streptozotocin, and subsequently, a hexaquis(benzylammonium) decavanadate or sodium decavanadate unique dose was administered to the rats. […] After seven days of treatment, the dose was increased at 10 μmol/kg/day which was maintained for an additional ten days. […] Thus, glycemia in sodium decavanadate treated rats was approximately 450 mg/dl and glycemia of hexaquis(benzylammonium) decavanadate treated rats was approximately 250 mg/dl.
(§2) Chronic in vivo efficacy of B6V10 was evaluated in streptozotocin-induced diabetic rats and in db/db mice. Streptozotocin-induced (45 mg/kg) diabetic rats were subcutaneously treated with hexaquis(benzylammonium) decavanadate (2.5 μmol/kg) (B6V10, solid squares, FIG. 8A) or with decavanadate (2.5 μmol/kg) (V10, open circles, FIG. 8A) delivered subcutaneously by osmotic minipumps implanted in the dorsal region. Diabetic rats were also sham-operated (untreated, solid diamonds, FIG. 8A). […] These experiments were repeated using an oral administration protocol. Streptozotocin-induced (45 mg/kg) diabetic rats were orally treated with hexaquis(benzylammonium) decavanadate (5 μmol/kg from day 0 to day 7 and 10 μmol/kg/day from day 7 to day 17) (B6V10, solid squares, FIG. 8B) or received decavanadate (10 μmol/kg) (V10, open circles, FIG. 8B). Nondiabetic rats were also untreated (solid triangles, FIG. 8B).

[3] = system: streptozotocin-induced diabetic rats; assay: chronic subcutaneous (osmotic minipump) treatment, glycemia of streptozotocin (45 mg/kg) diabetic rats; type: in vivo, rat; conditions: 2.5 μmol/kg/day subcutaneous by osmotic minipumps, about two weeks
Protocol: Insulin concentrations were determined before and after treatment.
The effect of chronic administration of hexaquis(benzylammonium) decavanadate on glycemia from diabetic rats was determined. Thus, diabetes was induced in rats by intravenous administration of streptozotocin, which destroys the β-pancreatic cells that produce insulin.
as §2

[4] = isolated rat adipocytes, 45 min incubation

pentaquis(benzylammonium) decavanadate [Example B5V10]
stimulatory effect on glucose transport in the presence of semicarbazide (isolated rat adipocytes): blocked | stimulatory effect on glucose transport in the presence of semicarbazide (isolated rat adipocytes; listed as pentaquis(benzylammonium) decavanadate): inhibited | stimulation of glucose transport (isolated rat adipocytes; [4]): pronounced stimulation

NCCc1ccc(F)cc1 [compound A, 2-(4-fluoro-phenyl)-ethylamine]
stimulation of glucose transport (isolated rat adipocytes; [4]): markedly stimulated

sodium decavanadate [reference compound]
protein kinase B phosphorylation (protein kinase B): not observed | stimulation of glucose transport (isolated rat adipocytes; alone at 5 to 50 μM): did not stimulate glucose transport | effect on glycemia [1]: did not show any change in circulating glucose | effect on glycemia [2]: not affected substantially | effect on glycemia ([2]; listed as V10): did not alter glycemia | glycemia ([2]; oral, after dosage increase to 10 μmol/kg/day): approximately 450 mg/dl | effect on glycemia [3]: did not modify substantially its glycemia | effect on glycemia ([3]; listed as V10): did not alter glycemia

tetraquis(benzylammonium) decavanadate [Example B4V10]
stimulatory effect on glucose transport in the presence of semicarbazide (isolated rat adipocytes): blocked | stimulatory effect on glucose transport in the presence of semicarbazide (isolated rat adipocytes; listed as tetraquis(benzylammonium) decavanadate): inhibited | stimulation of glucose transport (isolated rat adipocytes; [4]): pronounced stimulation

NCCCc1ccccc1 [compound B, 3-phenyl-propylamine]
stimulation of glucose transport (isolated rat adipocytes; [4]): markedly stimulated

NCCCCc1ccccc1 [compound D, 4-phenyl-butylamine]
stimulation of glucose transport at low concentration compared with A and B vanadium salts (isolated rat adipocytes): higher | stimulation of glucose transport (isolated rat adipocytes; [4]): markedly stimulated | maximal stimulatory effect on glucose transport, compounds compared (isolated rat adipocytes): similar

NCc1ccc(F)cc1 [compound C, 4-fluoro-benzylamine]
stimulation of glucose transport at low concentration compared with A and B vanadium salts (isolated rat adipocytes): higher | stimulation of glucose transport (isolated rat adipocytes; [4]): markedly stimulated | maximal stimulatory effect on glucose transport, compounds compared (isolated rat adipocytes): similar
